Results: patent US5866570A, “Treatment of vascular leakage and related syndrome such as septic shock by administration of metalloproteinase inhibitors” (Wisconsin Alumni Research Foundation, priority 1994, dated 1999)

Experiments:
[1] = tested on: HT-1080 cells (human fibrosarcoma); assay: in vitro invasion assay through matrigel (Transwell); type: cell-based
Protocol: Razoxane, various bis(hydroxylated)(2,6-dioxopiperazine)s, and various hydrophobic analogs were tested in an in vitro assay for inhibition of tumor cell penetration of a reconstituted basement membrane, matrigel, isolated from the Englegbreth-Holm-Swarm (EHS) tumor (disclosed in Kleinman et al., Biochem. (1982), 24, 6188-6193) first described by Albini et al, Cancer Res. (1987) 47, 3234-3245. An 8 μm pore filter coated with matrigel separates a lower compartment containing a chemoattractant and an upper compartment containing the cells and test compound. In particular, the following compounds were tested: razoxane, (1α, 2α, 4α, 5α)-4,4'-(4,5-dihydroxy-1,2-cyclohexanediyl)bis(2,6-piperazinedione); (1α, 2α, 4β, 5β)-4,4'-(4,5-dihydroxy-1,2-cyclohexanediyl)bis(2,6-piperazinedione);(1β, 2α,4α,5α)-4,4'-(4,5-dihydroxy-1,2-cyclohexanediyl)bis(2,6-piperazinedione); (1β, 2α, 4α,5β)-4,4'-(4,5-dihydroxy-1,2-cyclohexanediyl)bis(2,6piperazinedione); (1α, 2β, 4α,5β)-4,4'-(4,5-dihydroxy-1,2cyclohexanediyl)bis(2,6-piperazinedione); N,N'-cyclohexane-1,2-diylbis[N(2-ethoxy-2-oxoethyl)]glycine; N,N'-4-cyclohexene-1,2-diylbis[N-(2-ethoxy-2-oxoethyl)-glycine ester; (3aα, 5β, 6β, 7aα)-4,4'-(hexahydro-2,2-dimethyl1,3-benzodioxole-5,6-diyl)bis(2,6-piperazinedione); (3aα, 5α, 6α, 7aα)-4,4'-(hexahydro-2,2-dimethyl-1,3-benzodioxole-5,6-diyl)bis(2,6- piperazinedione); (3aα, 5α, 6β, 7aα)-4,4'-(hexahydro-2,2-dimethyl-1,3-benzodioxole-5,6-diyl)bis-2,6- piperazinedione; (3aα, 5β, 6α, 7aβ)-4,4'-(hexahydro-2,2dimethyl-1,3-benzodioxole-5,6-diyl)bis(2,6-piperazinedione); and (3aα, 5α, 6β, 7aβ)-4,4'-(hexahydro-2,2-dimethyl-1,3-benzodioxole-5,6-diyl) bis(2,6piperazinedione). Metastatic cells are able to degrade the basement membrane protein barrier and migrate through the pores of the filter whereas non-metastatic cells remain on the upper surface. The cells that pass to the under side of the filter are then counted under a microscope. […] Variations of this assay have been used to correlate this in vitro invasion with metastatic potential in vivo (Albini et al. (Id.); Hendrix et al. Cancer Letters (1987); 38, 127-247; Repesh L. A., Invasion Metastasis (1989) 9, 192-208 to select for more highly invasive cells (Teranova et al., Proc. Nat. Acad. Sci., (1986), 83, 465, 464; Tullberg et al., Invasion Metastasis, (1989), 9, 13-26; Sefer et al., Biotechniques, (1990), 9, 324-331), and to test compounds for inhibition (Nakajima et al., Cancer Res. (1989), 49, 1698-1756).
This method has been improved to increase the number of assays which may be performed and analyzed per day. In particular, such improvement comprises the use of disposable Transwells (Costar) units described by Repesh et al., Invasion Metastasis, (1989), 9, 192-208, which consist of an 8 μm pore filter attached to an insert that fits in a 24 well culture plate. Matrigel concentration is titrated from zero to complete inhibition of motility of each invasive cell line used in the assay and for each batch of matrigel. The matrigel concentration which yields 50% or greater inhibition of motility in a 6 hr assay (usually from 15 to 50 μg of protein per filter) is chosen for determination of invasion. Motility of cells through the 8 μm filters is not by passive diffusion since the pore size is smaller than the cells, and is determined in the same chamber in the absence of matrigel. Motility is stimulated two-fold by the presence of fibroblast conditioned medium (3T3 cells) as a chemoattractant (data not shown). The cell lines used are HT-1080, a human fibrosarcoma, and MDA-MB-231, a human breast carcinoma (both available from the American Type Tissue Culture). These cell lines express both the 72 kD and the 92 kD collagenase type IV as determined by zymography (data not shown).
For inhibition studies, 5×10^5 cells are plated in 200 μl of DMEM+0.1% BSA+the inhibitor (or appropriate solvent control) into the upper chamber of the Transwell. […]

BALB/C mice = assay: septic shock induced by i.p. endotoxin (Salmonella abortus equi); type: in vivo; details: for Survival/Total Ratio after 24 h / Survival/Total Ratio after 48 h / Survival/Total Ratio after 72 h: endotoxin2 (Salmonella abortus equi) i.p., drug i.p. 1 h before, 9 h and 20 h after
Protocol: Effect of razoxane in preventing death due to endotoxin-induced septic shock. Twelve BALB/c mice (female, 10-12 weeks old, 18-20 g) were injected i.p. with endotoxin (Salmonella abortus equi) twice at time zero (70 μg/mouse) and 48 h (30 μg/mouse). Razoxane (2 mg/mouse, in 1% sodium carboxymethyl cellulose) was given i.p. three times, i.e., 1 h. before, 9 h. and 20 h. after injection of initial dose of endotoxin. Another twelve mice, injected with endotoxin as above, were treated with buffer solution (1 % sodium carboxymethyl cellulose) as negative controls. It can be seen therein that the majority of control mice were dead within 50 hours of the initial endotoxin administration. In contrast, approximately 80% of the razoxane treated mice were still alive after 50 hours. Moreover, about 60% of the razoxane treated mice were still alive 100 hours after endotoxin administration, and recovered later on.
Effect of Compound 80 in preventing death due to endotoxin-induced septic shock. Twenty BALB/c mice (female, 10-12 weeks old, 18-20 g) were injected i.p. with endotoxin (Salmonella abortus equi, 100 μg/mouse). Compound 80 (0.33 mg/mouse) was given i.p. to 10 mice three times, i.e., 1 hour before, 9 hours and 20 hours after injection of endotoxin. The other 10 mice were injected with diluents as negative controls. The number of the mice survived at different periods to time after endotoxin injection were recorded. (P<0.0002).

[2] = razoxane 2 mg/mouse i.p. three times, endotoxin 70 μg at 0 h and 30 μg at 48 h

Row | SMILES | inhibition at 125 µM ([1]; Homo sapiens, HT-1080, at 125 μM, 6 hour assay, read-out: maximum inhibition of invasion) | inhibition of invasion ([1]; preliminary screen) | effect on cell motility ([1]; preliminary screen, no matrigel) | Survival/Total Ratio after 24 h (BALB/C mice) | Survival/Total Ratio after 48 h (BALB/C mice) | Survival/Total Ratio after 72 h (BALB/C mice) | consistent inhibition of invasion without effect on motility ([1]; from 250 μM to 1 mM) | treated mice still alive 100 hours after endotoxin administration (BALB/C mice; [2]) | treated mice still alive after 50 hours (BALB/C mice; [2])
1 | CC1(C)O[C@H]2C[C@H](N3CC(=O)NC(=O)C3)[C@@H](N3CC(=O)NC(=O)C3)C[C@@H]2O1 (relative stereo) [Compound 80, (3aα, 5β, 6α, 7aβ)-4,4'-(hexahydro-2,2-dimethyl-1,3-benzodioxole-5,6-diyl)bis(2,6-piperazinedione)] | 62% | inhibit invasion | without inhibiting cell motility | 10/10 | 8/10 | 6/10 | – | – | –
2 | CC(CN1CC(=O)NC(=O)C1)N1CC(=O)NC(=O)C1 (stereo not drawn) [razoxane] | – | – | – | 10/12 | 9/12 | 7/12 | could not be demonstrated | about 60% | approximately 80%
